Patent publication US9993492B2, “Lysophospholipids and lysophospholipid analogues against honeybee brood diseases” (University of Graz, priority 2013, dated 2018)
Read-outs that look alike come from different tables or passages of the source.

Legend:
Paenibacillus larvae = experiment: Antimicrobial assay in BHI liquid medium, vegetative forms of Paenibacillus larvae (MIC); format: cell-based; conditions: for MIC: Paenibacillus larvae
Experimental: For the evaluation of certain fatty acids and phospholipids, overnight cultures of vegetative forms of Pl were used (for results see Table 1.1).
As test organisms, several different strains of Paenibacillus larvae were used.
Overnight cultures of the vegetative forms of bacteria were prepared in BHI (brain heart infusion) liquid medium.
From these overnight cultures, an inoculum of 50 μl is added to 1.0 ml of BHI liquid medium to perform the bacterial test in liquid medium. The compound 1-O-oleoyl-sn-glycero-3-phosphocholine (oleoyl-LPC) together with a positive control was then added at concentrations of 2, 5 and 10 ppm and the test tubes were incubated for 24 h at 34.5° C. Then, the extinction of the solution was measured photometrically.

[1] = system: spores of Paenibacillus larvae; experiment: Spore assay in BHI liquid medium with plating for CFU; format: cell-based; conditions: lowest investigated dose (5 ppm); 114.6±28.4 spores per vial; 4 and 6 days
Experimental: A stock solution containing spores at a known concentration is used to inoculate c. 100 spores/mL medium. This assay is carried out in 20 mL cultivation tubes containing 1.0 mL of BHI (brain heart infusion) liquid medium. To this medium containing c. […] spores, test compounds are added at different concentrations (e.g., 2, 5 and 10 ppm), together with positive control (penicillin G at 5 ppm) and blank control.
To verify inoculation with c. 100 spores/mL, tubes containing BHI+spores are plated out immediately on agar plates to assess the number of colony forming units (CFU) after 6 days of incubation at 34.5° C.
For the control of viability of the spores, the turbidity (due to germination of spores and formation of vegetative forms) of tubes containing BHI+spores is evaluated on day 4.
For the test probes, bacterial growth is evaluated on day 4 and 6. For those tubes which are negative for bacterial growth, the whole medium (c. 1 mL) is plated onto agar plates and evaluated for CFUs after 2 and 6 days of incubation. CFUs visible after two days result from vegetative forms, while CFUs appearing after […] stem from spores.
The results of these tests allow identifying whether the tested compounds have an effect on spore germination in liquid medium and the viability of the spores as assessed by their germination on agar plates. […]

honeybee larvae = format: in vivo; conditions: LPC 10 μg/larva added on day 1, Nlarvae 192
Experimental: (§1) First instar larvae were transferred into plastic queen cups and fed the following diets: On the first day 10 μL of diet containing 6% glucose, 6% fructose, 1% yeast extract and 50% royal jelly were fed. Test substances (1-O-oleoyl-sn-glycero-3-phosphocholine (oleoyl-LPC), stearic acid, lysophosphatidylinositol and linoleic acid) were added to the first diet in amounts of 0.5 to 10 μg/larvae. For infection with spores of Paenibacillus larvae, larvae were grafted into 5 μL of diet containing test substances and subsequently 5 μL of diet with about 50 added Pl spores were given. Larvae were not fed on the second day to assure the consumption of the given diet. On the third day 20 μL of diet containing 7.5% glucose, 7.5% fructose, 1.5% yeast extract and 50% royal jelly were fed. Amounts of 30, 40 and 60 μL of diet composed of 9% glucose, 9% fructose, 2% yeast extract and 50% royal jelly were fed on the 4th, 5th and 6th day (method modified after Aupinel et al. [Aupinel et al. 2005. Bull Insectol 58:107-111]. Larvae were incubated at 34.5° C. and 95% relative humidity which was reduced to 80% on day 7. The mortality was checked daily for the first 7 days and when individuals emerged from queen cups at day 18 after the transfer into cups. To reduce the time for sporulation of Pl in the lab for security reasons, infection tests with Pl spores were stopped at day 7 with some experiments extend to day 12.
Larvae were fed according to a slightly modified rearing method of Aupinel et al., (2005). Larvae were fed for 6 days with different amounts of diets which always contained 50% of an aqueous solution (A, B, C) and 50% royal jelly (w/w). The solutions consisted of yeast extract (A=2%, B=3%, C=4%), glucose and fructose (A=12%, B=15%, C=18% each). 50 g portions of royal jelly (purchased from the Styrian school of beekeepers) were freeze stored at −20° C. Once a day all components of the needed diet were mixed freshly, warmed and fed to the larvae with a micro-pipette. On day 1 and 2 each larva was fed with 10 μL of diet A, on day three with 20 μL of diet B, on day four (30 μL), five (40 μL) and six (50 μL) with diet C. This way, each larva was supported with a total amount of 160 μL of food. The test compounds (see Table 4) were added each at the respective concentration on day 1, i.e. stearic acid (10 μg/larva), lysophosphatidylinositol (5 μg/larva), linoleic acid (12 μg/larva) and oleyol-LPC (10 μg/larva). Each larva was checked for its state of health under the binocular before feeding. A larva was defined healthy when movements of spiracles could be observed and it was shiny and plump. Cups with dead larvae were removed from the plate to prevent infections. To avoid microbial contamination, feeding took place under a laminar flow. Larvae were incubated at 34.5° C. and 90% RH. The mortality rates of the larvae are given below in table 4.1.

Pl-infected larvae = experiment: In vivo effect of LPC on Pl-infected larvae; set-up: species or system Apis mellifera; conditions: LPC 10 μg/larva on day 1, 2 and 3 + 50 spores/larva (ERIC II, strain 233/00) on day 1, replicates separated by /, Nlarvae 71/48/48
Experimental: as §1
In vivo effect of LPC on Pl-infected larvae: Artificial larval rearing was performed as described above. Larvae were individually infected with a dose of c. 50 spores/larva (ERIC II, strain 233/00) given on the first day. LPC was administered on day 1, 2 and 3 in a dose of 10 μg/d. Mortality was checked daily until d 12.

CCCCCCCC/C=C\CCCCCCCC(=O)OC[C@@H](O)COP(=O)([O-])OCC[N+](C)(C)C [1-O-oleoyl-sn-glycero-3-phosphocholine]
MIC (Paenibacillus larvae; 24 h, vegetative forms of Pl, liquid medium, read-out: MIC (ppm)): 2 to 5 µg/mL | MIC (Paenibacillus larvae; in vitro, read-out: in vitro Pl inhibitory activity, MIC): 2.5 µg/mL | MIC (Paenibacillus larvae; vegetative forms of Pl, liquid medium, read-out: MIC): > 3.8 µM | inhibitory / antibacterial activity against Pl (in words) (Paenibacillus larvae; in vitro): good in vitro Pl inhibitory activity | killing of vegetative forms upon germination of spores [1]: all vegetative forms are killed | Ndead larvae day 1 (honeybee larvae): 0 | Ndead larvae day 2 (honeybee larvae): 7 | Ndead larvae day 3 (honeybee larvae): 1 | Ndead larvae day 4 (honeybee larvae): 1 | Ndead larvae day 5 (honeybee larvae): 0 | Ndead larvae day 6 (honeybee larvae): 0 | Ndead larvae day 7 (honeybee larvae): 4 | Ndead larvae total (honeybee larvae; days 1-7): 13 | Ndead larvae total (Pl-infected larvae; days 1-12): 26/12/14 | Ndead larvae day 1 (Pl-infected larvae): 0/0/0 | Ndead larvae day 2 (Pl-infected larvae): 1/0/0 | Ndead larvae day 3 (Pl-infected larvae): 3/2/4 | Ndead larvae day 4 (Pl-infected larvae): 11/5/8 | Ndead larvae day 5 (Pl-infected larvae): 7/2/0 | Ndead larvae day 6 (Pl-infected larvae): 1/1/1 | Ndead larvae day 7 (Pl-infected larvae): 1/1/0 | Ndead larvae day 8 (Pl-infected larvae): 0/0/1 | Ndead larvae day 9 (Pl-infected larvae): 0/0/0 | Ndead larvae day 10 (Pl-infected larvae): 2/0/0 | Ndead larvae day 11 (Pl-infected larvae): 0/1/0 | Ndead larvae day 12 (Pl-infected larvae): 0/0/0
